Measurements published in EPA's ToxRefDB 2.

Tests used:
dog [1] = settings: Chronic toxicity, beagle, Oral, Capsule, dose end: 52 week, group: systemic
rat [2] = settings: Combined chronic toxicity/carcinogenicity, sprague dawley, Oral, Feed, dose end: 734 day, group: systemic
rat [3] = settings: Subchronic oral toxicity in rodents, sprague dawley, Feed, dose end: 90 day, group: systemic
rat [4] = settings: Developmental neurotoxicity range-finding study; sprague dawley; Oral; Feed; dose end: 22 PND; group: cannot be grouped; systemic / in life observation / clinical signs / tremors
dog [5] = settings: Subchronic oral toxicity in nonrodent, beagle, Capsule, dose end: 13 week
mouse = settings: Carcinogenicity, cd1, Oral, Feed, dose end: 87 week, group: systemic
rat [6] = settings: Prenatal developmental toxicity study, sprague dawley, Oral, Gavage/Intubation, dose end: 15 GD
rat [7] = settings: Prenatal developmental toxicity study, sprague dawley, Oral, Feed, dose end: 20 GD
rat [8] = settings: Sub-acute repeat dose toxicity, sprague dawley, Oral, Feed, dose end: 28 day, group: systemic
rabbit [9] = settings: Prenatal developmental toxicity study; new zealand white; Oral; Feed; dose end: 29 GD; group: developmental; developmental / developmental malformation / bone / absent + developmental / developmental malformation / bone / incomplete ossification + …
rabbit [10] = settings: Prenatal developmental toxicity study, new zealand white, Oral, Gavage/Intubation, dose end: 29 GD
dog [11] = settings: Chronic toxicity, beagle, Oral, Capsule, dose end: 1 year, group: systemic
rat [12] = settings: Sub-acute repeat dose toxicity, sprague dawley, Oral, Feed, dose end: 28 day, group: systemic; remark: listed apart in the source
dog [13] = settings: Sub-acute repeat dose toxicity; beagle; Oral; Capsule; dose end: 28 day; group: systemic; systemic / pathology microscopic / heart / lesion(s) (nos)
rabbit [14] = settings: Sub-acute repeat dose toxicity; new zealand white; Oral; Gavage/Intubation; dose end: 4 day; group: systemic; systemic / in life observation / body weight / body weight + systemic / in life observation / food consumption / food consumption
rat [15] = settings: Sub-acute repeat dose toxicity; sprague dawley; Oral; Gavage/Intubation; dose end: 4 day; group: systemic; systemic / in life observation / clinical signs / respiration (rales) + systemic / in life observation / mortality / mortality + systemic / …
rat [16] = settings: Sub-acute repeat dose toxicity; sprague dawley; Oral; Gavage/Intubation; dose end: 14 day; group: systemic; systemic / clinical chemistry / 5' nucleotidase / 5' nucleotidase + systemic / clinical chemistry / alanine aminotransferase (alt/sgpt) / …
rat [17] = settings: Sub-acute repeat dose toxicity, sprague dawley, Oral, Gavage/Intubation, dose end: 7 day, group: systemic
dog [18] = settings: Sub-acute repeat dose toxicity; beagle; Oral; Gavage/Intubation; dose end: 14 day; group: systemic; systemic / in life observation / clinical signs / emesis + systemic / in life observation / clinical signs / tremors + systemic / in life …
dog [19] = settings: Subchronic oral toxicity in nonrodent, beagle, Gavage/Intubation, dose end: 93 day, group: systemic
rabbit [20] = settings: Sub-acute repeat dose toxicity, new zealand white, Oral, Gavage/Intubation, dose end: 5 day, group: systemic
dog [21] = settings: Sub-acute repeat dose toxicity, beagle, Oral, Gavage/Intubation, dose end: 5 day, group: systemic
dog [22] = settings: Sub-acute repeat dose toxicity; beagle; Oral; Gavage/Intubation; dose end: 5 day; group: systemic; systemic / in life observation / clinical signs / abnormal feces
rat [23] = settings: Subchronic oral toxicity in rodents, sprague dawley, Gavage/Intubation, dose end: 93 day, group: systemic
[24] = systemic / in life observation / clinical signs / tremors
[25] = systemic / in life observation / clinical signs / tremors + systemic / hematology / erythrocyte (rbc) count differential / erythrocyte (rbc…
[26] = group: maternal, reproductive / reproductive performance / estrous cycle / abnormal
[27] = group: systemic, systemic / in life observation / clinical signs / tremors + systemic / in life observation / body weight / body weight gain + systemic / in …
[28] = systemic / pathology microscopic / testes / degeneration
[29] = group: developmental, developmental / developmental malformation / ureter / hydroureter
[30] = group: maternal, systemic / in life observation / clinical signs / tremors
[31] = group: developmental, developmental / developmental malformation / bone / unossified
[32] = group: maternal, systemic / in life observation / body weight / body weight gain + systemic / in life observation / clinical signs / hypersensitivity + …
[33] = systemic / in life observation / body weight / body weight + systemic / in life observation / body weight / body weight gain + systemic / in…
[34] = group: developmental, developmental / developmental malformation / bone / absent + developmental / developmental malformation / bone / incomplete ossification + …
[35] = group: maternal, reproductive / reproductive performance / aborted / aborted + reproductive / reproductive performance / resorptions / resorptions + systemic…
[36] = systemic / pathology microscopic / heart / lesion(s) (nos) + systemic / pathology microscopic / heart / fibrosis
[37] = systemic / in life observation / body weight / body weight gain
[38] = systemic / clinical chemistry / albumin-globulin ratio / albumin-globulin ratio + systemic / clinical chemistry / cholesterol / cholesterol…
[39] = systemic / in life observation / clinical signs / salivation + systemic / pathology microscopic / liver / vacuolization
[40] = systemic / in life observation / clinical signs / abnormal feces + systemic / in life observation / clinical signs / salivation
[41] = systemic / in life observation / clinical signs / emesis + systemic / organ weight / adrenal gland / absolute + systemic / clinical …
[42] = systemic / in life observation / body weight / body weight + systemic / in life observation / clinical signs / erythema
[43] = systemic / in life observation / clinical signs / erythema
[44] = systemic / in life observation / clinical signs / abnormal feces + systemic / in life observation / clinical signs / arrhythmia + systemic…
[45] = systemic / in life observation / clinical signs / salivation
[46] = systemic / in life observation / clinical signs / abnormal respiratory sounds + systemic / in life observation / clinical signs / salivation
[47] = systemic / organ weight / adrenal gland / absolute + systemic / in life observation / food consumption / food consumption + systemic / …

Compound: Cc1c(COC(=O)[C@@H]2[C@H](/C=C(\Cl)C(F)(F)F)C2(C)C)cccc1-c1ccccc1 [Bifenthrin]
- LOAEL (dog [1]; [24]): 3 mg/kg/day
- LEL (dog [1]; systemic / in life observation / clinical signs / tremors + systemic / clinical chemistry / sodium / sodium): 3 mg/kg/day
- NEL (dog [1]; [25]): 1.5 mg/kg/day
- NOAEL (dog [1]; [25]): 1.5 mg/kg/day
- LOAEL (rat [2]; [24]): 6.1 mg/kg/day
- NOAEL (rat [2]; systemic / in life observation / clinical signs / tremors + systemic / in life observation / body weight / body weight + systemic / in life …): 3 mg/kg/day
- LEL (rat [2]; systemic / organ weight / kidney / relative to body weight + systemic / organ weight / liver / relative to body weight): 4.7 mg/kg/day
- NEL (rat [2]; systemic / organ weight / kidney / relative to body weight + systemic / organ weight / liver / relative to body weight + systemic / in life …): 2.3 mg/kg/day
- NEL (rat [3]; systemic / in life observation / body weight / body weight + systemic / in life observation / body weight / body weight gain): 17.2 mg/kg/day
- LOAEL (rat [3]; [24]): 7.5 mg/kg/day
- NOAEL (rat [3]; systemic / in life observation / clinical signs / tremors + systemic / clinical chemistry / potassium / potassium + systemic / clinical …): 3.8 mg/kg/day
- LEL (rat [4]): 9.3 mg/kg/day
- LOAEL (rat [4]): > 9.3 mg/kg/day
- NEL (rat [4]): 7.4 mg/kg/day
- NOAEL (rat [4]): ≥ 9.3 mg/kg/day
- LEL (dog [5]; [26]): 10 mg/kg/day
- LOAEL (dog [5]; [26]): > 20 mg/kg/day
- NEL (dog [5]; [26]): 5 mg/kg/day
- NOAEL (dog [5]; [26]): ≥ 20 mg/kg/day
- LOAEL (dog [5]; group: systemic, systemic / in life observation / clinical signs / tremors): 5 mg/kg/day
- NEL (dog [5]; [27]): 2.5 mg/kg/day
- NOAEL (dog [5]; [27]): 2.5 mg/kg/day
- LEL (dog [5]; group: systemic, systemic / in life observation / clinical signs / tremors + systemic / in life observation / clinical signs / ataxia): 5 mg/kg/day
- LOAEL (mouse; [24]): 25.6 mg/kg/day
- NOAEL (mouse; systemic / in life observation / clinical signs / tremors + systemic / pathology microscopic / liver / adenoma/carcinoma combined + systemic…): 6.7 mg/kg/day
- LEL (mouse; [28]): 6.7 mg/kg/day
- NEL (mouse; [28]): < 6.7 mg/kg/day
- LEL (rat [6]; [29]): 2 mg/kg/day
- LOAEL (rat [6]; [29]): 2 mg/kg/day
- NEL (rat [6]; [29]): 1 mg/kg/day
- NOAEL (rat [6]; [29]): 1 mg/kg/day
- LEL (rat [6]; [30]): 2 mg/kg/day
- LOAEL (rat [6]; [30]): 2 mg/kg/day
- NEL (rat [6]; [30]): 1 mg/kg/day
- NOAEL (rat [6]; [30]): 1 mg/kg/day
- LEL (rat [7]; [31]): 16.3 mg/kg/day
- LOAEL (rat [7]; [31]): > 16.3 mg/kg/day
- NEL (rat [7]; [31]): 7.4 mg/kg/day
- NOAEL (rat [7]; [31]): ≥ 16.3 mg/kg/day
- LEL (rat [7]; [32]): 16.3 mg/kg/day
- LOAEL (rat [7]; [32]): 16.3 mg/kg/day
- NEL (rat [7]; [32]): 7.4 mg/kg/day
- NOAEL (rat [7]; [32]): 7.4 mg/kg/day

Compound: Cn1cnc2c1c(=O)[nH]c(=O)n2C [Theobromine]
- LOAEL (rat [8]; [33]): > 912 mg/kg/day
- NOAEL (rat [8]; [33]): ≥ 912 mg/kg/day
- LEL (rat [8]; systemic / in life observation / body weight / body weight + systemic / in life observation / food consumption / food consumption): 389 mg/kg/day
- NEL (rat [8]; systemic / in life observation / body weight / body weight + systemic / in life observation / food consumption / food consumption + systemic…): 200 mg/kg/day
- LEL (rabbit [9]): 41 mg/kg/day
- LOAEL (rabbit [9]): > 63 mg/kg/day
- NEL (rabbit [9]): 21 mg/kg/day
- NOAEL (rabbit [9]): ≥ 63 mg/kg/day
- LEL (rabbit [10]; group: developmental, developmental / developmental malformation / bone / absent + developmental / developmental malformation / bone / incomplete ossification): 75 mg/kg/day
- LOAEL (rabbit [10]; [34]): > 200 mg/kg/day
- NEL (rabbit [10]; [34]): 25 mg/kg/day
- NOAEL (rabbit [10]; [34]): ≥ 200 mg/kg/day
- LOAEL (rabbit [10]; [35]): > 200 mg/kg/day
- NEL (rabbit [10]; [35]): 25 mg/kg/day
- NOAEL (rabbit [10]; [35]): ≥ 200 mg/kg/day
- LEL (rabbit [10]; group: maternal, reproductive / reproductive performance / resorptions / resorptions + reproductive / offspring survival early / dead fetuses / dead fetuses): 75 mg/kg/day
- LEL (dog [11]; systemic / pathology microscopic / heart / lesion(s) (nos)): 100 mg/kg/day
- LOAEL (dog [11]; [36]): > 150 mg/kg/day
- NOAEL (dog [11]; [36]): ≥ 150 mg/kg/day
- LOAEL (rat [12]; [33]): > 492 mg/kg/day
- NOAEL (rat [12]; [33]): ≥ 492 mg/kg/day
- LEL (rat [12]; [37]): 94 mg/kg/day
- NEL (rat [12]; [37]): < 94 mg/kg/day
- LEL (dog [13]): 100 mg/kg/day
- LOAEL (dog [13]): > 150 mg/kg/day
- NEL (dog [13]): 75 mg/kg/day
- NOAEL (dog [13]): ≥ 150 mg/kg/day

Compound: COc1ccc(C(C)(C)C)cc1CN[C@H]1C2CCN(CC2)[C@H]1C(c1ccccc1)c1ccccc1
- LOAEL (rabbit [14]): > 150 mg/kg/day
- NEL (rabbit [14]): 30 mg/kg/day
- NOAEL (rabbit [14]): ≥ 150 mg/kg/day
- LEL (rat [15]): 300 mg/kg/day
- LOAEL (rat [15]): > 300 mg/kg/day
- NEL (rat [15]): < 300 mg/kg/day
- NOAEL (rat [15]): ≥ 300 mg/kg/day
- LOAEL (rat [16]): > 500 mg/kg/day
- NEL (rat [16]): < 150 mg/kg/day
- NOAEL (rat [16]): ≥ 500 mg/kg/day
- LOAEL (rat [17]; [38]): > 100 mg/kg/day
- NOAEL (rat [17]; [38]): ≥ 100 mg/kg/day
- LEL (rat [17]; [39]): 30 mg/kg/day
- NEL (rat [17]; [39]): < 30 mg/kg/day
- LEL (dog [18]): 20 mg/kg/day
- LOAEL (dog [18]): > 20 mg/kg/day
- NEL (dog [18]): < 20 mg/kg/day
- NOAEL (dog [18]): ≥ 20 mg/kg/day
- LEL (dog [19]; [40]): 1 mg/kg/day
- NEL (dog [19]; [40]): < 1 mg/kg/day
- LOAEL (dog [19]; [41]): > 20 mg/kg/day
- NOAEL (dog [19]; [41]): ≥ 20 mg/kg/day
- LOAEL (rabbit [20]; [42]): > 150 mg/kg/day
- NOAEL (rabbit [20]; [42]): ≥ 150 mg/kg/day
- LEL (rabbit [20]; [43]): 5 mg/kg/day
- NEL (rabbit [20]; [43]): < 5 mg/kg/day
- LOAEL (dog [21]; [44]): > 20 mg/kg/day
- NOAEL (dog [21]; [44]): ≥ 20 mg/kg/day
- LEL (dog [21]; [45]): 5 mg/kg/day
- NEL (dog [21]; [45]): < 5 mg/kg/day
- LEL (dog [22]): 5 mg/kg/day
- LOAEL (dog [22]): > 20 mg/kg/day
- NEL (dog [22]): < 5 mg/kg/day
- NOAEL (dog [22]): ≥ 20 mg/kg/day
- LEL (rat [23]; [46]): 5 mg/kg/day
- NEL (rat [23]; [46]): < 5 mg/kg/day
- LOAEL (rat [23]; [47]): > 150 mg/kg/day
- NOAEL (rat [23]; [47]): ≥ 150 mg/kg/day
